Experimental data reported in patent US20230028441A1, “NOVEL HETEROARYL-TRIAZOLE COMPOUNDS AS PESTICIDES” (Bayer Aktiengesellschaft, priority 2019, published 2023).

How the values were obtained:
Assay type in all cases: in vivo
[1] = system: larvae of the southern green stink bug (Nezara viridula); assay: Nezara viridula spray test; settings: in Hordeum vulgare, 96 h
Method: (§1) Solvent: 78.0 parts by weight of acetone • • 1.5 parts by weight of dimethylformamide
(§2) Emulsifier: alkylarylpolyglycol ether
(§3) To produce a suitable preparation of active compound, 1 part by weight of active compound is mixed with the stated amount of solvent, and the concentrate is diluted with water, containing an emulsifier concentration of 1000 ppm, to the desired concentration. Further test concentrations are prepared by dilution with emulsifier containing water.
Barley plants (Hordeum vulgare) infested with larvae of the southern green stink bug (Nezara viridula) are sprayed with a test solution containing the desired concentration of the active ingredient.
After 4 days mortality in % is determined. 100% means all the stink bugs have been killed; 0% means none of the stink bugs have been killed.

[2] = system: adult engorged female ticks (Rhipicephalus microplus); assay: Rhipicephalus (Boophilus) microplus injection test; settings: 168 h, egg deposition after 7 days, read-out: efficacy (infertile eggs); for pest or weed control at 0.004 mg: 4 μg/animal; for pest or weed control at 0.02 mg: 20 μg/animal
Method: (§4) Solvent: dimethyl sulfoxide
To produce a suitable preparation of active compound, 10 mg of active compound are dissolved in 0.5 mL solvent, and the concentrate is diluted with solvent to the desired concentration.
Five adult engorged female ticks (Rhipicephalus microplus) are injected with 1 μL compound solution into the abdomen. The ticks are transferred into replica plates and incubated in a climate chamber.
After 7 days egg deposition of fertile eggs is monitored. Eggs where fertility is not visible are stored in a climate chamber till hatching after about 42 days. An efficacy of 100% means all eggs are infertile; 0% means all eggs are fertile.

[3] = system: fall armyworm larvae (Spodoptera frugiperda); assay: Spodoptera frugiperda spray test (maize leaf sections); settings: 168 h
Method: Solvent: 78.0 parts by weight acetone • 1.5 parts by weight dimethylformamide
as §2
as §3, with “solvents” for “solvent,”, “and” for “and the concentrate”
Maize (Zea mays) leaf sections are sprayed with a preparation of the active ingredient of the desired concentration. Once dry, the leaf sections are infested with fall armyworm larvae (Spodoptera frugiperda).
After 7 days mortality in % is determined. 100% means all caterpillars have been killed and 0% means none of the caterpillars have been killed.

[4] = system: adult unfed cat fleas (Ctenocephalides felis); assay: Ctenocephalides felis oral test; settings: 48 h, 100 ppm in cattle blood, after 2 days
Method: as §4
To produce a suitable preparation of active compound, 10 mg of active compound are dissolved in 0.5 mL solvent, and the concentrate is diluted with cattle blood to the desired concentration.
Approximately 20 adult unfed cat fleas (Ctenocephalides felis) are placed in flea chambers. The blood chamber, sealed with parafilm on the bottom, are filled with cattle blood supplied with compound solution and placed on the gauze covered top of the flea chamber, so that the fleas are able to suck the blood. The blood chamber is heated to 37° C. whereas the flea chamber is kept at room temperature.
After 2 days mortality in % is determined. 100% means all the fleas have been killed; 0% means none of the fleas have been killed.

[5] = system: green peach aphid (Myzus persicae); assay: Myzus persicae oral test; settings: 120 h
Method: Solvent: 100 parts by weight acetone
To produce a suitable preparation of active compound, 1 part by weight of active compound is mixed with the stated amount of solvent, and the concentrate is diluted with water to the desired concentration.
50 μL compound solution is filled in microtiter plates and 150 μL IPL41 insect medium (33%+15% sugar) is added to obtain a total volume of 200 μL per well. Afterwards the plates are sealed with parafilm through which a mixed population of the green peach aphid (Myzus persicae) can suck on the compound preparation.
After 5 days mortality in % is determined. 100% means all aphids have been killed and 0% means none of the aphids have been killed.

[6] = system: larvae of the banded cucumber beetle (Diabrotica balteata); assay: Diabrotica balteata spray test; settings: 168 h, 100 g/ha (=32 μg/well), after 7 days, wheat seeds, read-out: efficacy (seedlings grown up)
Method: as §1, §2, §3
Soaked wheat seeds (Triticum aestivum) are placed in a multiple well plate filled with agar and some water and are incubated for 1 day to germinate (5 seeds per well). The germinated wheat seeds are sprayed with a test solution containing the desired concentration of the active ingredient. Afterwards each unit is infected with 10-20 larvae of the banded cucumber beetle (Diabrotica balteata).
After 7 days efficacy in % is determined. 100% means all the seedlings have grown up like in the untreated, uninfected control; 0% means none of the seedlings have grown.

[7] = system: adult brown dog ticks (Rhipicephalus sanguineus); assay: Rhipicephalus sanguineus in-vitro contact test with adult brown dog ticks; settings: after 48 hours, read-out: efficacy (ticks dead or moribund); for pest or weed control at 5 µg/cm2, 500 g/ha: 5 μg/cm^2 (=500 g/ha); for pest or weed control at 1 µg/cm2, 100 g/ha: 1 μg/cm^2 (=100 g/ha)
Method: (§5) 9 mg compound is solved in 1 mL acetone and diluted with acetone to the desired concentration. 250 μL of the test solution is filled in 25 mL glass test tubes and homogeneously distributed on the inner walls by rotation and tilting on a shaking device (2 h at 30 rpm). With a compound concentration of 900 ppm, an inner surface of 44.7 cm^2 and a homogeneous distribution, a dose of 5 μg/cm^2 is achieved.
After the solvent has evaporated, each test tube is filled with 5-10 adult brown dog ticks (Rhipicephalus sanguineus), closed with a perforated lid and incubated in a lying position at room temperature and relative humidity. After 48 hours efficacy is determined. The ticks are patted on the ground of the tubes and are incubated on a heating plate at 45-50° C. for at most 5 minutes. Immotile or uncoordinated moving ticks, which are not able to escape the heat by climbing upwards, are marked as dead or moribund.
An efficacy of 100% means all ticks are dead or moribund; 0% means no ticks are dead or moribund.

[8] = system: cattle tick larvae (Rhipicephalus microplus), strain Parkhurst, resistant against synthetic pyrethroids; assay: Rhipicephalus (Boophilus) microplus in-vitro contact test, larval cattle tick; settings: 5 μg/cm^2 (=500 g/ha), after 48 hours, read-out: efficacy (larvae dead or moribund)
Method: as §5
After the solvent has evaporated, each test tube is filled with 20-50 cattle tick larvae (Rhipicephalus microplus), closed with a perforated lid and incubated in a horizontal position at 85% relative humidity and 27° C. in an incubator. After 48 hours efficacy is determined. The larvae are patted on the ground of the tubes and negative geotactic behaviour is recorded.
An efficacy of 100% means all larvae are dead or moribund; 0% means no larvae are dead or moribund.

## CC(=O)Nc1nc(C(C)NC(=O)c2cc(Cl)cc(S(C)(=O)=O)c2)n(-c2ccc(Cl)cn2)n1 (stereo not drawn) [I-017]
[1]
  mortality at 100 g/ha: 90%
  mortality at 500 g/ha: 100%
[2]
  pest or weed control at 0.004 mg: 100%
  pest or weed control at 0.02 mg: 100%
[3]
  mortality at 500 g/ha: 100%
[4]
  mortality at 100 ppm: 100%
[5]
  mortality at 4 ppm: 100%

## CC(NC(=O)c1cc(Cl)cc(C(F)(F)F)c1)c1nc(NC(=O)[C@@H]2C[C@@H]2F)nn1-c1ncccn1 (stereo partly drawn) [I-024]
[6]
  pest or weed control at 32 µg/disc, 100 g/ha: 100%
[3]
  mortality at 100 g/ha: 100%
[5]
  mortality at 4 ppm: 100%

## CC(NC(=O)c1cc(Cl)cc(S(C)(=O)=O)c1)c1nc(S(C)(=O)=O)nn1-c1ccc(Cl)cn1 (racemic) [I-060, 3-chloro-N-[1-[2-(5-chloro-2-pyridyl)-5-methylsulfonyl-1,2,4-triazol-3-yl]ethyl]-5-methylsulfonyl-benzamide]
[1]
  mortality at 100 g/ha: 100%
  mortality at 500 g/ha: 100%
[2]
  pest or weed control at 0.004 mg: 100%
  pest or weed control at 0.02 mg: 100%
[5]
  mortality at 4 ppm: 100%

## CC(NC(=O)c1cc(Cl)cc(S(C)(=O)=O)c1)c1nc(NC(=O)C2(Cl)CC2)nn1-c1ncccn1 (stereo not drawn) [I-020]
[2]
  pest or weed control at 0.004 mg: 100%
[4]
  mortality at 100 ppm: 100%
[5]
  mortality at 4 ppm: 90%

## CC(NC(=O)c1cncc(C(F)(F)F)c1)c1nc(-c2ncccn2)nn1-c1ncccn1 (stereo not drawn) [I-053]
[4]
  mortality at 100 ppm: 100%
[5]
  mortality at 4 ppm: 90%

## CC(NC(=O)c1cc(Cl)cc(S(C)(=O)=O)c1)c1nc(-c2cnccn2)nn1-c1ncccn1 (stereo not drawn) [I-045]
[7]
  pest or weed control at 5 µg/cm2, 500 g/ha: 80%
[2]
  pest or weed control at 0.004 mg: 100%
  pest or weed control at 0.02 mg: 100%
[4]
  mortality at 100 ppm: 100%
[5]
  mortality at 4 ppm: 90%

## CC(NC(=O)c1cc(Cl)cc(S(C)(=O)=O)c1)c1nc(-c2ccco2)nn1-c1ncccn1 (stereo not drawn) [I-057]
[2]
  pest or weed control at 0.004 mg: 80%
  pest or weed control at 0.02 mg: 100%
[4]
  mortality at 100 ppm: 100%
[5]
  mortality at 4 ppm: 100%

## CNc1nc([C@H](C)NC(=O)c2cc(C(F)(F)F)cc(C(F)(F)F)c2)n(-c2ncc(C(=O)N3CCOCC3)s2)n1 [I-126, N-[(1S)-1-[5-(methylamino)-2-[5-(morpholine-4-carbonyl)thiazol-2-yl]-1,2,4-triazol-3-yl]ethyl]-3,5-bis(trifluoromethyl)benzamide]
[1]
  mortality at 500 g/ha: 100%
[6]
  pest or weed control at 32 µg/disc, 100 g/ha: 100%
[7]
  pest or weed control at 5 µg/cm2, 500 g/ha: 80%
[3]
  mortality at 100 g/ha: 100%

## CC(NC(=O)c1cc(Cl)cc(C(F)(F)F)c1)c1nc(C#N)nn1-c1ncccn1 (single isomer, unassigned) [I-080, 3-chloro-N-[1-(5-cyano-2-pyrimidin-2-yl-1,2,4-triazol-3-yl)ethyl]-5-(trifluoromethyl)benzamide]
[6]
  pest or weed control at 32 µg/disc, 100 g/ha: 100%
[2]
  pest or weed control at 0.004 mg: 100%
[4]
  mortality at 100 ppm: 100%
[5]
  mortality at 4 ppm: 90%

## CC(NC(=O)c1cc(Br)cc(C(F)(F)F)c1)c1nc(N)nn1-c1ncccn1 (stereo not drawn) [I-093]
[7]
  pest or weed control at 1 µg/cm2, 100 g/ha: 80%
[2]
  pest or weed control at 0.004 mg: 100%
[3]
  mortality at 100 g/ha: 83%
[8]
  pest or weed control at 5 µg/cm2: 100%
[4]
  mortality at 100 ppm: 90%
[5]
  mortality at 4 ppm: 100%

## CC(NC(=O)c1cc(Cl)cc(S(C)(=O)=O)c1)c1nc(NS(C)(=O)=O)nn1-c1ccc(Cl)cn1 (racemic) [I-025, 3-chloro-N-[1-[2-(5-chloro-2-pyridyl)-5-(methanesulfonamido)-1,2,4-triazol-3-yl]ethyl]-5-methylsulfonyl-benzamide]
[5]
  mortality at 4 ppm: 90%

## CC(NC(=O)c1cc(Cl)cc(C(C)(C)C#N)c1)c1nc(N2CCOCC2)nn1-c1ccc(C#N)cn1 (stereo not drawn) [I-159]
[1]
  mortality at 500 g/ha: 90%
[6]
  pest or weed control at 32 µg/disc, 100 g/ha: 100%
[7]
  pest or weed control at 1 µg/cm2, 100 g/ha: 100%
[3]
  mortality at 100 g/ha: 100%
[8]
  pest or weed control at 5 µg/cm2: 100%

## CC(NC(=O)c1cc(Cl)cc(S(C)(=O)=O)c1)c1nc(CS(C)(=O)=O)nn1-c1ccc(Cl)cn1 (stereo not drawn) [I-027, 3-chloro-N-[1-[2-(5-chloro-2-pyridyl)-5-(methylsulfonylmethyl)-1,2,4-triazol-3-yl]ethyl]-5-methylsulfonyl-benzamide]
[1]
  mortality at 100 g/ha: 100%
  mortality at 500 g/ha: 100%
[2]
  pest or weed control at 0.004 mg: 80%
  pest or weed control at 0.02 mg: 100%
[8]
  pest or weed control at 5 µg/cm2: 90%
[4]
  mortality at 100 ppm: 100%
[5]
  mortality at 4 ppm: 100%

## CC(NC(=O)c1cc(Br)cc(Br)c1)c1nc(N)nn1-c1ncccn1 (stereo not drawn) [I-094]
[3]
  mortality at 100 g/ha: 100%
[5]
  mortality at 4 ppm: 100%

## CC(NC(=O)c1cc(Cl)cc(C(F)(F)F)c1)c1nc(C(N)=O)nn1-c1ncccn1 (single isomer, unassigned) [I-074, 5-[1-[[3-chloro-5-(trifluoromethyl)benzoyl]amino]ethyl]-1-pyrimidin-2-yl-1,2,4-triazole-3-carboxamide]
[1]
  mortality at 100 g/ha: 100%
[2]
  pest or weed control at 0.004 mg: 100%
[4]
  mortality at 100 ppm: 100%
[5]
  mortality at 4 ppm: 100%

## CC(Cl)C(=O)Nc1nc(C(C)NC(=O)c2cc(Cl)cc(S(C)(=O)=O)c2)n(-c2ncccn2)n1 (stereo not drawn) [I-019]
[1]
  mortality at 100 g/ha: 90%
[2]
  pest or weed control at 0.004 mg: 100%
[4]
  mortality at 100 ppm: 100%
[5]
  mortality at 4 ppm: 90%

## CC(NC(=O)c1cc(Cl)cc(Br)c1)c1nc(N)nn1-c1ncccn1 (stereo not drawn) [I-108]
[6]
  pest or weed control at 32 µg/disc, 100 g/ha: 100%
[3]
  mortality at 100 g/ha: 100%
[8]
  pest or weed control at 5 µg/cm2: 90%
[5]
  mortality at 4 ppm: 100%

## CC(NC(=O)c1cc(Cl)cc(C(F)(F)F)c1)c1nc(NC(=O)C2CC2)nn1-c1ncccn1 (stereo not drawn) [I-023]
[1]
  mortality at 100 g/ha: 90%
[6]
  pest or weed control at 32 µg/disc, 100 g/ha: 100%
[3]
  mortality at 100 g/ha: 100%
[5]
  mortality at 4 ppm: 100%

## CNC(=O)c1nc(C(C)NC(=O)c2cc(Cl)cc(C(F)(F)F)c2)n(-c2ccc(C#N)cn2)n1 (stereo not drawn) [I-079]
[2]
  pest or weed control at 0.004 mg: 100%
  pest or weed control at 0.02 mg: 100%
[3]
  mortality at 100 g/ha: 100%
[8]
  pest or weed control at 5 µg/cm2: 100%
[4]
  mortality at 100 ppm: 100%
[5]
  mortality at 4 ppm: 100%

## CC(NC(=O)c1cc(Cl)cc(S(C)(=O)=O)c1)c1nc(N)nn1-c1ccc(Cl)cn1 (stereo not drawn) [I-005]
[2]
  pest or weed control at 0.004 mg: 100%
  pest or weed control at 0.02 mg: 100%
[4]
  mortality at 100 ppm: 100%
[5]
  mortality at 4 ppm: 90%
